Reference: patent US9737535B2, “Methods for treating cancer using TOR kinase inhibitor combination therapy comprising administering substituted pyrazino[2,3-b]pyrazines” (Signal Pharmaceuticals, LLC, priority 2014, dated 2017)

Experiments:
Assay type in all cases: cell-based
[1] = test system: caspase 3/7 activation in NCI-H441 cells; experiment: Caspase-Glo 3/7 assay; details: 24 hours post-treatment, normalized to DMSO control, combination at 1:1
Protocol: Cell lines were maintained in the growth medium recommended by ATCC (American Type Culture Collection). […] The compounds were serially diluted in DMSO from the highest concentration of 30 μM (single compounds and in combination with constant a constant ratio of 1:1). […] The percentage of induction of apoptosis was normalized to DMSO control (no compound).

HCC-1500 = experiment: Anti-proliferation assay (ATPLite), Chalice synergy score; set-up: scale not given here; details: Compound 1 in combination with the named second active agent, 72 h, mean of n = 3 experiments in triplicate
Text: (§1) Cells were thawed from a liquid nitrogen preserved state.
(§2) The calculation for synergy score is provided below.
(§3) If T≧V0:100*[1−(T−V0)/(V−V0)]

HCC-1187 = experiment: as above; set-up: scale not given here; details: Compound 1 in combination with the named second active agent, 72 h, mean of n = 3 experiments in triplicate
Text: as §1, §2, §3

BT-20 = experiment: as above; set-up: scale not given here; details: Compound 1 in combination with the named second active agent, 72 h, mean of n = 3 experiments in triplicate
Text: as §1, §2, §3

BT-549 = experiment: as above; details: Compound 1 in combination with the named second active agent, 72 h, mean of n = 3 experiments in triplicate
Text: as §1, §2, §3

HCC-1937 = experiment: as above; details: Compound 1 in combination with the named second active agent, 72 h, mean of n = 3 experiments in triplicate
Text: as §1, §2, §3

HCC-1428 = experiment: as above; details: Compound 1 in combination with the named second active agent, 72 h, mean of n = 3 experiments in triplicate
Text: as §1, §2, §3

HCC-1806 = experiment: as above; details: Compound 1 in combination with the named second active agent, 72 h, mean of n = 3 experiments in triplicate
Text: as §1, §2, §3

HCC70 = experiment: as above; details: Compound 1 in combination with second active agent; HCC-70; mean self-cross + 2σ threshold 3.45
Text: as §1, §2, §3

MDA-MB-157 = experiment: as above; details: Compound 1 in combination with second active agent, mean self-cross + 2σ threshold 4.68
Text: as §1, §2, §3

BT-474 = experiment: as above; details: Compound 1 in combination with the named second active agent, 72 h, mean of n = 3 experiments in triplicate
Text: as §1, §2, §3

MDA-MB-436 = experiment: as above; details: Compound 1 in combination with second active agent, mean self-cross + 2σ threshold 1.91
Text: as §1, §2, §3

MDA-MB-468 = experiment: as above; details: Compound 1 in combination with second active agent, mean self-cross + 2σ threshold 4.66
Text: as §1, §2, §3

Hs-578-T = experiment: as above; details: Compound 1 in combination with second active agent, mean self-cross + 2σ threshold 4.09
Text: as §1, §2, §3

MCF7 = experiment: as above; details: Compound 1 in combination with second active agent, mean self-cross + 2σ threshold 3.07
Text: as §1, §2, §3

MDA-MB-231 = experiment: as above; details: Compound 1 in combination with second active agent, mean self-cross + 2σ threshold 2.61
Text: as §1, §2, §3

Structure (SMILES) | Synergy score (HCC-1500) | Synergy score (HCC-1187) | Synergy score (BT-20) | Synergy score (BT-549) | Synergy score (HCC-1937) | Synergy score (HCC-1428) | Synergy score (HCC-1806) | Synergy score (HCC70) | Synergy score (MDA-MB-157) | Synergy score (BT-474) | Synergy score (MDA-MB-436) | Synergy score (MDA-MB-468) | Synergy score (Hs-578-T) | Synergy score (MCF7) | Synergy score (MDA-MB-231) | other results
O=C(NOCC1CC1)c1ccc(F)c(F)c1Nc1ccc(I)cc1Cl [CI-1040] | – | – | – | – | – | – | – | – | – | – | – | – | – | – | – | % Caspase activation Mean (n = 3) ([1]; 0.1 μM): 98.6%; % Caspase activation Mean (n = 3) ([1]; 0.3 μM): 104.1%; % Caspase activation Mean (n = 3) ([1]; 1 μM): 96.6%; % Caspase activation Mean (n = 3) ([1]; 3 μM): 99.3%; % Caspase activation Mean (n = 3) ([1]; 10 μM): 103.9%; % Caspase activation Mean (n = 3) ([1]; 30 μM): 124.2%
CS(=O)(=O)N1CCN(Cc2cc3nc(-c4cccc5[nH]ncc45)nc(N4CCOCC4)c3s2)CC1 [GDC-0941] | 1.45 | 5.18 | 6.56 | 4.39 | 4.39 | 1.90 | 6.16 | 6.42 | 5.60 | 5.04 | 1.25 | 3.21 | 7.23 | 5.22 | 1.76 | –
CN(C)CCCn1cc(C2=C(c3c[nH]c4ccccc34)C(=O)NC2=O)c2ccccc21 [GF 109203X] | 3.41 | 4.47 | 1.04 | 1.73 | 3.03 | 0.47 | 0.43 | 4.47 | 6.19 | 0.47 | 2.60 | 10.60 | 2.35 | 0.35 | 2.28 | –
CCc1cc(Nc2nccc(-c3c(-c4ccc(OC)c(C(=O)Nc5c(F)cccc5F)c4)nc4ccccn34)n2)c(OC)cc1N1CCC(N2CCN(S(C)(=O)=O)CC2)CC1 [GSK1904529A] | 1.63 | 1.68 | 1.07 | 0.81 | 1.86 | 0.16 | 1.00 | 2.15 | 0.82 | 1.09 | 1.22 | 2.44 | 0.97 | 2.77 | 0.09 | –
O=C(Nc1cc(C(F)(F)F)cc(C(F)(F)F)c1)c1cc(Cl)ccc1O [IMD-0354] | 1.42 | 1.86 | 1.85 | 2.68 | 6.42 | 0.51 | 7.45 | 0.88 | 4.80 | 1.77 | 3.94 | 3.80 | 3.35 | 2.88 | 6.14 | –
C=CCn1c(=O)c2cnc(Nc3ccc(N4CCN(C)CC4)cc3)nc2n1-c1cccc(C(C)(C)O)n1 [MK1775] | 2.46 | 1.30 | 5.01 | 2.99 | 7.93 | 3.25 | 0.55 | 12.10 | 2.68 | 9.61 | 1.45 | 7.69 | 9.02 | 5.76 | 2.31 | –
NC1(c2ccc(-c3nc4ccn5c(=O)[nH]nc5c4cc3-c3ccccc3)cc2)CCC1 [MK-2206] | 2.02 | 10.60 | 13.10 | 9.17 | 11.40 | 4.09 | 7.33 | 13.30 | 9.00 | 8.24 | 5.55 | 10.80 | 12.60 | 12.10 | 3.39 | –
CC(C)C[C@H](NC(=O)CNC(=O)c1cc(Cl)ccc1Cl)B1OC(=O)C(CC(=O)O)(CC(=O)O)O1 [MLN9708] | 2.26 | 1.79 | 3.67 | 4.47 | 3.84 | 2.59 | 4.31 | 2.16 | 2.91 | 0.75 | 2.77 | 3.00 | 1.68 | 0.39 | 2.27 | –
O=C(NOC[C@H](O)CO)c1ccc(F)c(F)c1Nc1ccc(I)cc1F [PD0325901] | 3.58 | 7.89 | 6.34 | 1.62 | 3.54 | 4.69 | 3.78 | 14.70 | 8.05 | 1.50 | 4.20 | 5.84 | 3.88 | 4.62 | 9.62 | –
OCCn1cc(-c2cnc3nnn(Cc4ccc5ncccc5c4)c3n2)cn1 [PF-04217903] | 0.11 | 0.17 | 0.05 | 0.04 | 0.44 | 0.31 | 0.39 | 0.33 | 0.75 | 0.57 | 0.08 | 1.09 | 1.12 | 0.20 | 0.53 | –
COc1cc2c(NC3CCN(C4CCCCC4)CC3)nc(N3CCCN(C(C)C)CC3)nc2cc1OCCCN1CCCCC1 [UNC 0646] | 1.11 | 0.22 | 2.59 | 0.91 | 0.54 | 1.66 | 0.53 | 2.03 | 1.05 | 1.13 | 0.66 | 2.08 | 2.20 | 3.27 | 0.49 | –
COc1ccc(Cl)c(Nc2nc3ccccc3nc2NS(=O)(=O)c2cccc(NC(=O)C(C)(C)N)c2)c1 [XL147] | 2.87 | 5.02 | 0.23 | 0.18 | 0.64 | 0.43 | 1.06 | 0.09 | 1.99 | 1.81 | 0.67 | 0.34 | 0.77 | 0.18 | 0.57 | –
COCCn1c2c([n+](Cc3cnccn3)c1C)C(=O)c1ccccc1C2=O [YM155] | 2.81 | 4.94 | 2.67 | 6.80 | 5.70 | 1.16 | 5.52 | 4.01 | 5.42 | 4.04 | 2.79 | 0.24 | 3.36 | 1.77 | 2.54 | –
